In patent publication US10953015B2, “Use of adenosine receptor signaling to regulate P-gp function” (CORNELL UNIVERSITY, priority 2016, dated 2021):

Columns and labels:
P-gp [1] = assay: P-gp expression in brain of WT mice (western blot, IFA of frozen section); format: in vivo, mouse
Method: (§1) HCMEC-D3 and HBMVEC cells were plated in 12-well plates and were grown until they reached 100% confluency. The media was replaced with fresh media containing 1 μM of Lexiscan® or NECA with proper vehicle control (DMSO) for up to 72 hours. Cells were lysed by lysis buffer […] containing protease inhibitor cocktail and stored for later use (−70° C.). For cytoskeletal fraction analysis, cells were lysed in CSK buffer (100 mM NaCl, 300 mM sucrose, 3 mM MgCl2, 10 mM PIPES, pH 6.8). For brain samples, half of the brain was homogenized and lysed with […] lysis buffer and centrifuged at 17,000 g for 20 minutes and 1:10 diluted samples were used for analysis. Sample was loaded on 7% SDS PAGE at 100 V for 1 hour and transferred to the nitrocellulose paper. It was blocked with 1% BSA and incubated with anti-P-gp antibody (Genetex, 1:2000) overnight. Subsequently, it was washed with TBST and incubated with anti-rabbit secondary antibody (1:2000) for 1 hour. It was washed with TBST and developed with ECL substrate and exposed to x-ray film. Anti-GAPDH or −β-actin antibody was used as loading control. The intensity of band was analyzed with densitometric analysis and plotted as a graph for analysis of time-course effect of AR signaling on P-gp expression.
Mice were treated with Lexiscan® or NECA at different time points and were infused with ice-cold PBS and sacrificed. Half of the brain was cut and put in the cassette and filled with OCT solution. Samples were snap-frozen with liquid nitrogen, cut with cryostat (10 μm) and fixed with acetone for 5 minutes, and incubated with C219 for P-gp stain (1:100) and Glut1 for endothelial cell marker (1:100) at 4° C. overnight. Sections were washed with PBS and additionally stained with secondary antibody conjugated with fluorochrome. Full images of the brain sections were visualized and recorded using Aperio Scan Scope (Leica Biosystems).

P-gp [2] = assay: Western blot of P-gp expression in HCMEC-D3 cells; format: cell-based, human; conditions: 1 μM, up to 72 hours
Method: as §1

P-gp [3] = molecular target: T1, P-gp (Mus musculus, UniProt P21447); assay: Epirubicin brain accumulation assay; format: in vivo; conditions: mice
T1 construct: down-modulation of P-gp expression and function in brain vascular endothelial cells in WT mice; from tissue; host or cells: brain of WT mice
T1 sequence (P21447 whole entry): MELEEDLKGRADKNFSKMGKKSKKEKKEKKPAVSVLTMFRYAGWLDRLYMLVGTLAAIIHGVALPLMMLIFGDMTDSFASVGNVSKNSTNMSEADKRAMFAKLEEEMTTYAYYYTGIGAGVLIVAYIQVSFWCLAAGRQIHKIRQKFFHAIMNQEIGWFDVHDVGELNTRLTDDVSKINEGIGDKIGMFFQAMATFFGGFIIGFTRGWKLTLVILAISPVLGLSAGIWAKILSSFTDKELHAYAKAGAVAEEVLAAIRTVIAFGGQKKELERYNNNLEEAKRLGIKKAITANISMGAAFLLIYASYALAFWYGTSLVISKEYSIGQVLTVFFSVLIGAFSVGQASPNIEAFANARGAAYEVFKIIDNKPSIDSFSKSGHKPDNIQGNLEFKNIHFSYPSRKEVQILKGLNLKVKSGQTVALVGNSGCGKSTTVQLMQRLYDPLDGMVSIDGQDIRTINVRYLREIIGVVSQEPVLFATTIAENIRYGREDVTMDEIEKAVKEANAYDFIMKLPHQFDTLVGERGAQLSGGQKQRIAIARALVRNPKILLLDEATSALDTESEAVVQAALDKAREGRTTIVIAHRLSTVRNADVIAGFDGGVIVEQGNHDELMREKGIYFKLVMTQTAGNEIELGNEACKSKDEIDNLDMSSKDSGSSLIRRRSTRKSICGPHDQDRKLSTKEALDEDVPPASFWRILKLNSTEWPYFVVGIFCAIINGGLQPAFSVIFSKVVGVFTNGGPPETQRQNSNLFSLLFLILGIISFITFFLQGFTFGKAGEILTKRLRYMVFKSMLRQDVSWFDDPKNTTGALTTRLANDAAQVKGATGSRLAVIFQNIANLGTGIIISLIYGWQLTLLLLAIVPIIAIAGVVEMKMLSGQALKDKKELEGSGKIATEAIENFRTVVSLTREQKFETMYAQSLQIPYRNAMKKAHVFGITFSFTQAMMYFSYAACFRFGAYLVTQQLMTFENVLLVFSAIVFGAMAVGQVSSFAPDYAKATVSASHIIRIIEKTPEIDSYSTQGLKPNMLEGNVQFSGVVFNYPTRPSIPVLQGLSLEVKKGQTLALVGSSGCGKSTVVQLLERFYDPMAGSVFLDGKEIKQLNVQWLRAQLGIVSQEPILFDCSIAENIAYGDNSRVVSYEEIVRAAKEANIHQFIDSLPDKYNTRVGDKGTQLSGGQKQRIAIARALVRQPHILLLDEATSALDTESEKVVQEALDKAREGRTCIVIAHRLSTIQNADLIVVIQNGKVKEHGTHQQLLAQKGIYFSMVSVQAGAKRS
Method: FIG. 12A is a fluorescence microscopy image showing immunofluorescence images of brains from Lexiscan®-treated mice of WT brain at 15 and 30 minutes after Lexiscan® treatment. Frozen brain sections were stained with GLUT1 (red), or P-gp (green) and counterstained with DAPI (blue). FIG. 12B is a fluorescence microscopy image showing an enlarged image of FIG. 12A. FIG. 12C is a graph summarizing the experimental results of a brain epirubicin accumulation assay in the Lexiscan®- and vehicle-treated (control) mice. Briefly, 10 mg/kg of epirubicin was injected intravenously with or without 0.05 mg/kg of Lexiscan®. Mice were perfused with ice-cold PBS and sacrificed at different time points. The accumulation of epirubicin in the brain was measured using fluorometric excitation at 488 nm and emission at 590 nm. *P<0.05 (n=4, 2-tailed Student's t test). FIG. 12D are fluorescence microscopy images showing fluorescent microscopic analysis of epirubicin accumulation in the brains of mice treated with Lexiscan® or PSC833 (a functional P-gp inhibitor) compared with vehicle (control). 10 mg/kg of epirubicin was injected intravenously with or without 0.05 mg/kg of Lexiscan® or 50 mg/kg of PSC833 for 15 minutes. Mice were perfused with ice-cold PBS and sacrificed. Brain was sectioned for microscopic analysis for full-brain image, and focal zoomed image from cortex was laid as an inset. Epirubicin is in red, and nucleus was counterstained with DAPI (blue). FIG. 12E are graphs showing the quantified intensity of epirubicin from different regions of cortex (CTX), cerebellum (CRBL), and hippocampus (HPC) from brains of control, Lexiscan®-, or PSC833-injected animals and depicted as graphs. The scale bars indicate 100 μm in FIG. 12A; 50 μm in FIG. 12B, and 5 mm in FIG. 12D). ***P<0.001 (n=50, 2-tailed Student's t test).
FIG. 14A is a western blot of P-gp and BCRP1 from mouse brain at 2 and 18 hours after NECA treatment. FIG. 14B are graphs showing the enumeration of the expression intensity of P-gp and BCRP1 from the western blots shown in FIG. 14A. The intensity of the bands from NECA treatment group was divided by that of DMSO control. […] For fluorescence microscopy, frozen brain sections were stained with GLUT1 (red) or P-gp (green) and counterstained with DAPI (blue). […] The accumulation of epirubicin in the brain was measured using fluorometry, with excitation at 488 nm and emission at 590 nm. *P<0.05 (n=4, 2-tailed Student's t test).
For Lexiscan® study, 10 mg/kg of epirubicin was injected with or without Lexiscan® (0.05 mg/kg) at different time points, and mice were sacrificed. […] Samples were spun down at 17,000 g for 30 minutes, and the concentration for epirubicin was analyzed with fluorimetry with […].

| SMILES | Time at which effect on P-gp occurred (P-gp [1]) | P-gp expression in brain endothelial cells (P-gp [1]; Lexiscan® treatment, 5 to 60 minutes) | P-gp expression (western blot, vs DMSO control) (P-gp [2]) | Epirubicin fluorescent intensity in brain sections (cortex, cerebellum, hippocampus) (P-gp [3]; 10 mg/kg epirubicin i.v. with 0.05 mg/kg Lexiscan® or 50 mg/kg PSC833 for 15 minutes) | Epirubicin accumulation in the brain (fluorometry) (P-gp [3]; 10 mg/kg epirubicin i.v. with 0.05 mg/kg Lexiscan®, different time points) | P-gp expression level in brain (P-gp [1]; 2 and 18 hours after NECA) | Epirubicin accumulation in the brain (fluorometry) (P-gp [3]; 0.08 mg/kg NECA i.v., then 10 mg/kg epirubicin i.v. for 15 minutes) |
| --- | --- | --- | --- | --- | --- | --- | --- |
| CNC(=O)c1cnn(-c2nc(N)c3ncn([C@@H]4O[C@H](CO)[C@@H](O)[C@H]4O)c3n2)c1 [Lexiscan®, 1-[6-amino-9-[(2R,3R,4S,5R)-3,4-dihydroxy-5-(hydroxymethyl)oxolan-2-yl]purin-2-yl]-N-methylpyrazole-4-carboxamide] | ≤ 5 min | decreased P-gp expression in brain endothelial cells in WT mice between 5 and 15 minutes; this was recovered by 30 minutes | rapid decrease in P-gp expression beginning at 30 minutes, which was maintained for up to 1 hour | Significant epirubicin intensity in the cerebral cortex, the cerebellum, and the hippocampus | began to increase at 5 minutes; this was maintained up to 30 minutes and returned to baseline by 60 minutes | – | – |
| CCNC(=O)[C@H]1O[C@@H](n2cnc3c(N)ncnc32)[C@H](O)[C@@H]1O [NECA, (2S,3S,4R,5R)-5-(6-aminopurin-9-yl)-N-ethyl-3,4-dihydroxyoxolane-2-carboxamide] | – | – | decreased P-gp expression for up to 4 hours | – | – | gradual decrease in P-gp expression level, beginning at 2 hours; this was maintained for up to 18 hours | showed epirubicin accumulation in the brain that matched the kinetics of P-gp decrease |
